Counter-ions that a name gives are not always drawn.
Assays:
Format in all cases: cell-based, human
[1] = tested on: HT29 (CRC) cells; test: KI library screen for TRAIL sensitization (KI pretreatment, then TRAILPEG; MTT cell death assay); settings: for efficacy when combined with TRAILPEG (relative cell death, KI+TRAILPEG / KI alone): HT29 cells pretreated with KI for 24 hours before TRAILPEG; for KIs that sensitize cancer cells to TRAIL-based agents: HT-29 colorectal adenocarcinoma
[2] = tested on: MDA-MB-231 breast cancer cells; test: KI library screen for TRAIL sensitization
Text: (§1) A library of KIs was screened for TRAIL sensitization in various TRAIL-resistant cancer cells, including: HT29 (CRC), MDA-MB-231 (breast), LNCAP (prostate), DU145 (prostate), PC3 (prostate) and A549 (lung). […] The 355 KIs comprised of compounds targeting diverse kinases, including multi kinases, RTK (receptor kinase tyrosine), PI3K (phosphinistide 3-kinase), aurora kinases, including […] (mitogen-activated protein kinase). […] The interaction between KIs and TRAIL had been previously explored in vitro with the tyrosine KI sorafenib, a drug similar to regorafenib. However, such studies were mostly performed on cellular levels and not in in vivo models, combined with systemically administered recombinant TRAIL. Although a similar structure, regorafenib was newly approved in 2012. The interactions between the three other selected KIs and TRAIL have not been previously reported, in vitro or in vivo.

[3] = tested on: LNCAP prostate adenocarcinoma cells; test: KI library screen for TRAIL sensitization
Text: as §1

[4] = tested on: A549 lung carcinoma cells; test: KI library screen for TRAIL sensitization
Text: as §1

[5] = tested on: HP LNCAP prostate adenocarcinoma cells; test: KI library screen for TRAIL sensitization
Text: as §1
Regorafenib potentiated TRAIL-induced apoptosis in prostate cancer cells (LNCAP, HPLNCAP (High Passages LNCAP), DU-145 and PC-3) when combined with TRAILPEG (1 μg/mL) (FIG. 5). After treating cells with regorafenib (5 μM), caspases and anti-apoptotic proteins were analyzed by western blotting (FIG. 6A-FIG. 6C). […] Data confirmed that FDA-approved KIs or KIs under clinical development synergized with long-acting TRAILPEG by overcoming TRAIL-resistance through unique TRAIL sensitization mechanisms.

Question: How did the “efficacy when combined with TRAILPEG (relative cell death, KI+TRAILPEG / KI alone)” value [1] turn out when `COc1cccc(-c2cc(=O)c3ccccc3o2)c1N` [PD98059] was run?
Answer: synergistic efficacy

Question: And the “KIs that sensitize cancer cells to TRAIL-based agents” value (“KIs that sensitize cancer cells” for short) [1]?
Answer: Example KIs that sensitize cancer cells to TRAIL-based agents.

Question: How did the “KIs that sensitize cancer cells” value [2] turn out when `CCS(=O)(=O)c1cccc(-c2cc(C(=O)NC3CCN(C)CC3)c(C)c3[nH]c4ncc(C)cc4c23)c1` [TAK-901] was run?
Answer: Example KIs that sensitize cancer cells to TRAIL-based agents.

Question: How did the “KIs that sensitize cancer cells” value [2] turn out when `CC(C)CC(=O)Nc1[nH]nc2c1CN(C(=O)C1CCN(C)CC1)C2(C)C` [PHA-793887] was run?
Answer: Example KIs that sensitize cancer cells to TRAIL-based agents.

Question: Which “KIs that sensitize cancer cells” value [2] does the source give for CHIR-98014 here?
Answer: Example KIs that sensitize cancer cells to TRAIL-based agents.

Question: How did the “KIs that sensitize cancer cells” value [3] turn out when `COc1cc2ncnc(Nc3ccc(Cl)cc3F)c2cc1OC` [ZM 306416] was run?
Answer: Example KIs that sensitize cancer cells to TRAIL-based agents.

Question: `O=C1NCCc2[nH]c(-c3ccncc3)cc21` [PHA-767491] was tested. Which “KIs that sensitize cancer cells” value [2] did it give?
Answer: Example KIs that sensitize cancer cells to TRAIL-based agents.

Question: `N#CC1(c2ccc(NC(=O)c3cccnc3NCc3ccncc3)cc2)CCCC1` [Apatinib] was tested. Which “KIs that sensitize cancer cells” value [4] did it give?
Answer: Example KIs that sensitize cancer cells to TRAIL-based agents.

Question: For `CCO.N#CC(=C(/N)Sc1ccccc1N)/C(C#N)=C(\N)Sc1ccccc1N` [U0126-EtOH], which “efficacy when combined with TRAILPEG (relative cell death, KI+TRAILPEG / KI alone)” value [1] is on record?
Answer: synergistic efficacy

Question: What about the “KIs that sensitize cancer cells” value [1] of the same compound?
Answer: Example KIs that sensitize cancer cells to TRAIL-based agents.

Question: `N#CCNC(=O)c1ccc(-c2ccnc(Nc3ccc(N4CCOCC4)cc3)n2)cc1` [CYT387] was tested. Which “KIs that sensitize cancer cells” value [2] did it give?
Answer: Example KIs that sensitize cancer cells to TRAIL-based agents.

Question: How did the “KIs that sensitize cancer cells” value [4] turn out when `CCc1cc(Nc2nccc(-c3c(-c4ccc(OC)c(C(=O)Nc5c(F)cccc5F)c4)nc4ccccn34)n2)c(OC)cc1N1CCC(N2CCN(S(C)(=O)=O)CC2)CC1` [GSK1904529A] was run?
Answer: Example KIs that sensitize cancer cells to TRAIL-based agents.

Question: Which “KIs that sensitize cancer cells” value [2] does the source give for `CN(c1ncccc1CNc1nc(Nc2ccc3c(c2)CC(=O)N3)ncc1C(F)(F)F)S(C)(=O)=O` [PF-00562271] here?
Answer: Example KIs that sensitize cancer cells to TRAIL-based agents.

Question: What does the source list for `Cc1cc(Nc2cc(N3CCN(C)CC3)nc(/C=C/c3ccccc3)n2)n[nH]1` [ENMD-2076]?
Answer: efficacy when combined with TRAILPEG (relative cell death, KI+TRAILPEG / KI alone) [1]: synergistic efficacy; KIs that sensitize cancer cells to TRAIL-based agents [1]: Example KIs that sensitize cancer cells to TRAIL-based agents.

Question: `O=C(NC1CCNCC1)c1[nH]ncc1NC(=O)c1c(Cl)cccc1Cl` [AT7519] was tested. Which “KIs that sensitize cancer cells” value [4] did it give?
Answer: Example KIs that sensitize cancer cells to TRAIL-based agents.

Question: With `COc1cc2nccc(Oc3ccc(NC(=O)NC4CC4)c(Cl)c3)c2cc1C(N)=O` [Lenvatinib (E7080), Lenvatinib] as the compound, how does the “KIs that sensitize cancer cells” value [5] read?
Answer: Example KIs that sensitize cancer cells to TRAIL-based agents.

Question: For `CNC(=O)c1ccc(-c2cnc3ncc(Cc4ccc5ncccc5c4)n3n2)cc1F` [INCB28060], which “KIs that sensitize cancer cells” value [3] is on record?
Answer: Example KIs that sensitize cancer cells to TRAIL-based agents.

Question: Which “efficacy when combined with TRAILPEG (relative cell death, KI+TRAILPEG / KI alone)” value [1] does the source give for `CC[C@H](Nc1ncnc2[nH]cnc12)c1nc2cccc(F)c2c(=O)n1-c1ccccc1` [CAL-101 (Idelalisib, GS-1101), Idelalisib] here?
Answer: synergistic efficacy

Question: What about the “KIs that sensitize cancer cells” value [1] of the same compound?
Answer: Example KIs that sensitize cancer cells to TRAIL-based agents.

Question: Which “KIs that sensitize cancer cells” value [2] does the source give for `Cc1cnc(Nc2ccc(N3CCN(C)CC3)cc2)nc1Nc1cccc(S(=O)(=O)NC(C)(C)C)c1` [TG101209] here?
Answer: Example KIs that sensitize cancer cells to TRAIL-based agents.

Question: `CS(=O)(=O)CCNCc1ccc(-c2ccc3ncnc(Nc4ccc(OCc5cccc(F)c5)c(Cl)c4)c3c2)o1` [Lapatinib (GW-572016) Ditosylate, Lapatinib] was tested. Which “KIs that sensitize cancer cells” value [3] did it give?
Answer: Example KIs that sensitize cancer cells to TRAIL-based agents.

Question: What about the “KIs that sensitize cancer cells” value [4] of the same compound?
Answer: Example KIs that sensitize cancer cells to TRAIL-based agents.

Question: `CCN(CC)CCNC(=O)c1c(C)[nH]c(/C=C2\C(=O)Nc3ccc(F)cc32)c1C` [Sunitinib Malate] was tested. Which “KIs that sensitize cancer cells” value [3] did it give?
Answer: Example KIs that sensitize cancer cells to TRAIL-based agents.

Question: `CN1CC[C@H](c2c(O)cc(O)c3c(=O)cc(-c4ccccc4Cl)oc23)[C@H](O)C1` [Flavopiridol HCl] was tested. Which “KIs that sensitize cancer cells” value [2] did it give?
Answer: Example KIs that sensitize cancer cells to TRAIL-based agents.

Question: And the “KIs that sensitize cancer cells” value [4]?
Answer: Example KIs that sensitize cancer cells to TRAIL-based agents.

Question: Which results are given for `CC(C)(C)c1cnc(CSc2cnc(NC(=O)C3CCNCC3)s2)o1` [SNS-032 (BMS-387032)]?
Answer: KIs that sensitize cancer cells to TRAIL-based agents [2]: Example KIs that sensitize cancer cells to TRAIL-based agents.; KIs that sensitize cancer cells to TRAIL-based agents [4]: Example KIs that sensitize cancer cells to TRAIL-based agents.

Question: For `C=CC(=O)Nc1cc2c(Nc3ccc(F)c(Cl)c3)ncnc2cc1OCCCN1CCOCC1` [Canertinib (CI-1033), Canertinib], which “KIs that sensitize cancer cells” value [2] is on record?
Answer: Example KIs that sensitize cancer cells to TRAIL-based agents.

Question: With `Cn1c(=O)n(-c2ccc(C(C)(C)C#N)cc2)c2c3cc(-c4cnc5ccccc5c4)ccc3ncc21` [BEZ235 (NVP-BEZ235, Dactolisib), Dactolisib] as the compound, how does the “efficacy when combined with TRAILPEG (relative cell death, KI+TRAILPEG / KI alone)” value [1] read?
Answer: synergistic efficacy

Question: And the “KIs that sensitize cancer cells” value [1]?
Answer: Example KIs that sensitize cancer cells to TRAIL-based agents.

Question: How did the “KIs that sensitize cancer cells” value [2] turn out when `CC[C@@H]1C(=O)N(C)c2cnc(Nc3ccc(C(=O)N[C@H]4CC[C@H](N5CCN(CC6CC6)CC5)CC4)cc3OC)nc2N1C(C)C` [Volasertib (BI 6727), Volasertib] was run?
Answer: Example KIs that sensitize cancer cells to TRAIL-based agents.

Question: `CC[C@H](CO)Nc1nc(NCc2ccccc2)c2ncn(C(C)C)c2n1` [Roscovitine (Seliciclib, CYC202), Roscovitine] was tested. Which “KIs that sensitize cancer cells” value [2] did it give?
Answer: Example KIs that sensitize cancer cells to TRAIL-based agents.

Question: Which “KIs that sensitize cancer cells” value [2] does the source give for `O=c1[nH]c2ccc(Cl)cc2c(N[C@@H]2CN3CCC2CC3)c1-c1nc2ccccc2[nH]1` [CHIR-124] here?
Answer: Example KIs that sensitize cancer cells to TRAIL-based agents.

Question: And the “KIs that sensitize cancer cells” value [4]?
Answer: Example KIs that sensitize cancer cells to TRAIL-based agents.

Question: With `CCCCOc1c(C(=O)c2c(F)cc(C)cc2F)c[nH]c2nncc1-2` [BMS-265246] as the compound, how does the “KIs that sensitize cancer cells” value [2] read?
Answer: Example KIs that sensitize cancer cells to TRAIL-based agents.

Question: And the “KIs that sensitize cancer cells” value [4]?
Answer: Example KIs that sensitize cancer cells to TRAIL-based agents.

Question: For `Cc1ccc([N+](=O)[O-])cc1S(=O)(=O)N(C)/N=C/c1cnc2ccc(Br)cn12` [PIK-75], which “KIs that sensitize cancer cells” value [2] is on record?
Answer: Example KIs that sensitize cancer cells to TRAIL-based agents.

Question: For `Cc1cc(Nc2cc(CN3CCOCC3)c3nc(C)c(Cc4ccc(Cl)cc4F)n3n2)n[nH]1` [LY2784544], which “KIs that sensitize cancer cells” value [2] is on record?
Answer: Example KIs that sensitize cancer cells to TRAIL-based agents.

Question: With `Cc1ncc(-c2ccnc(Nc3ccc(S(C)(=O)=O)cc3)n2)n1C(C)C` [AZD5438] as the compound, how does the “KIs that sensitize cancer cells” value [4] read?
Answer: Example KIs that sensitize cancer cells to TRAIL-based agents.

Question: With `CCOc1cc2ncc(C#N)c(Nc3ccc(F)c(Cl)c3)c2cc1NC(=O)/C=C/CN(C)C` [Pelitinib (EKB-569), Pelitinib] as the compound, how does the “KIs that sensitize cancer cells” value [2] read?
Answer: Example KIs that sensitize cancer cells to TRAIL-based agents.

Question: With `COc1cc2ncc(-c3ccccc3)nc2cc1OC` [Tyrphostin AG 1296] as the compound, how does the “KIs that sensitize cancer cells” value [3] read?
Answer: Example KIs that sensitize cancer cells to TRAIL-based agents.

Question: For `C[C@]1(O)C[C@@H](c2nc(-c3ccc4ccc(-c5ccccc5)nc4c3)c3c(N)nccn32)C1` [OSI-906 (Linsitinib), Linsitinib], which “KIs that sensitize cancer cells” value [3] is on record?
Answer: Example KIs that sensitize cancer cells to TRAIL-based agents.

Question: How did the “KIs that sensitize cancer cells” value [2] turn out when `CNC(=O)c1nn(C)c2c1C(C)(C)Cc1cnc(Nc3ccc(N4CCN(C)CC4)cc3)nc1-2` [Milciclib (PHA-848125), Milciclib] was run?
Answer: Example KIs that sensitize cancer cells to TRAIL-based agents.

Question: How did the “KIs that sensitize cancer cells” value [2] turn out when `Cc1cc(CN2CCN(c3c(Br)cnc4nc(-c5ccc(N6CCN(C)CC6)cc5)[nH]c34)CC2)no1` [CCT137690] was run?
Answer: Example KIs that sensitize cancer cells to TRAIL-based agents.

Question: For `Cc1cc(Nc2nc(N[C@@H](C)c3ccc(F)cc3)c(C#N)cc2F)[nH]n1` [AZ 960], which “KIs that sensitize cancer cells” value [2] is on record?
Answer: Example KIs that sensitize cancer cells to TRAIL-based agents.

Question: For `O=C(Nc1ccc(OC(F)(F)F)cc1)c1sccc1NCc1ccnc2ccccc12` [OSI-930], which “efficacy when combined with TRAILPEG (relative cell death, KI+TRAILPEG / KI alone)” value [1] is on record?
Answer: synergistic efficacy

Question: And the “KIs that sensitize cancer cells” value [1]?
Answer: Example KIs that sensitize cancer cells to TRAIL-based agents.

Question: How did the “KIs that sensitize cancer cells” value [4] turn out when `CCN1CCN(c2ccc(Nc3cc(N(C)C(=O)Nc4c(Cl)c(OC)cc(OC)c4Cl)ncn3)cc2)CC1` [BGJ398 (NVP-BGJ398)] was run?
Answer: Example KIs that sensitize cancer cells to TRAIL-based agents.

Question: Which “KIs that sensitize cancer cells” value [2] does the source give for `Cc1[nH]nc2ccc(-c3cncc(OC[C@@H](N)Cc4ccccc4)c3)cc12` [A-674563] here?
Answer: Example KIs that sensitize cancer cells to TRAIL-based agents.

Reference: US20210169984A1, “SENSITIZING CANCER TO DEATH RECEPTOR AGONISTS WITH KINASE INHIBITORS” (The Johns Hopkins University, priority 2016, published 2021)
